Data as given in patent US10940150B2, “Thymine derivatives and quinazoline-dione derivatives for the inhibition of HSP27” (TECHNISCHE UNIVERSITAET DRESDEN, priority 2014, dated 2021).

Tests used:
RPMI-8226 cells [1] = assay: Development of resistance to bortezomib in RPMI-8226 cells; format: cell-based
Experimental: The cell line RPMI-8226 (DMSZ 402) is a “multiple myeloma” cell line and was chosen because bortezomib is employed as a standard therapy for multiple myeloma. RPMI-8226 cells respond to bortezomib, express HSP27 and develop resistance to Velcade. RPMI-8226 cells were seeded at a cell count of 100,000 cells/ml in each case and regularly passaged. […] In contrast, for RPMI 8226 cells that were treated with 30 μmol/L BVDU, a final cell count of 160,000 cells/ml was detected whereas the final cell count for the culture without the addition of an HSP27 inhibitor amounted to 350,000 cells/ml. As a control, RPMI 8226 cells were treated with the respective test substances alone, FIG. 4b.

HSP27 [2] = molecular target: T1, HSP27 (Homo sapiens, UniProt P04792); assay: Capillary electrophoresis of heat-denatured citrate synthase protein precipitates; format: biochemical; conditions: for times higher activity than BVDU for the inhibition of the HSP27 protein / Efficacy compared with BVDU: 10 μmol/L vs 750 μmol/L BVDU; for times higher activity than BVDU for the inhibition of the HSP27 protein / Rel. quantity of protein prec. CS: 43° C. for 120 minutes; for Rel. quantity of protein prec. CS: 10 μmol/L; for BVDU equivalent dose: based on 100 mg BVDU
Experimental: (§1) Since the heat-denatured protein aggregates of the citrate synthase from Example 1 are not water-soluble, these can be separated completely from the supernatant by means of centrifugation at room temperature at 16,000×g, 10 min. By using capillary electrophoresis, the compositions of the separated precipitates can be shown and quantified. The relative quantity of protein of precipitated citrate synthase serves as a measure of the efficacy of the test substances.
(§2) In each case, 481 nmol/L HSP27 and 1.44 μmol/L citrate synthase in 40 mmol/L HEPES buffer, pH 7.4, were employed. The relative quantity of protein of the precipitated citrate synthase in each case was normalized using a defined quantity of BSA as internal standard. The relative quantity of protein that precipitated when using 750 μmol/L BVDU was set at 1. The other test substances (2 representatives of phenothiazine derivatives of general formula (V), 2 representatives of purine derivatives of formula (I) or (II)) were each employed at a concentration of 10 μmol/L.
as §1, with “Example 2” for “Example 1”
as §2, with “nM” for “nmol/L”, “thymine” for “purine”, “were” for “were each”, “μmol/L in each case.” for “μmol/L.”
Otherwise, the experiments were performed as described above: […]

HSP27 [3] = molecular target: T1, HSP27; assay: Spectrophotometric protein aggregation assay (citrate synthase, HSP27 chaperone function); format: biochemical; conditions: for effect on chaperone function of HSP27 (CS aggregation) relative to 750 μmol/L BVDU: 43° C., 500 nm
Experimental: FIG. 1: a spectrophotometric protein aggregation assay at 43° C., a wavelength of 500 nm and a concentrations of the proteins: 1.44 μmol/L citrate synthase (CS), 481 nmol/L HSP27 (HSP) in a 40 mmol/L HEPES buffer (pH 7.4) during treatment with 14 or 28 μmol/L 2-(3-trichlorovinylphenylamino)-1,9-dihydropurin-6-one (CS+HSP+test substance no. 2), with 750 μmol/L BVDU (CS+HSP+BVDU) and without (CS+HSP; reference);
To measure the efficacy of the purine derivatives according to the invention, robust experiments for the chaperone function of the HSP27 protein were performed:
A known client protein (=substrate on which HSP27 acts as a chaperone) of HSP27 is citrate synthase. Citrate synthase is denatured when the temperature increases to 43° C. This heat denaturation is prevented or delayed by the presence of HSP27 [Jakob U, 1993]. By adding the novel active ingredients, their efficacy can thus be measured through the inhibition of the HSP27 chaperone function.
To determine the activity (i.e. the effect on the aggregation behaviour of the citrate synthase (CS) after thermal incubation) of 2-(3-trichlorovinylphenylamino)-1,9-dihydropurin-6-one in comparison to BVDU, four different batches containing 1.44 μmol/L CS, 481 nmol/L HSP27 (HSP) in a 40 mmol/L HEPES buffer (pH 7.4) were prepared and BVDU (750 μmol/L) or various concentrations of 2-(3-trichlorovinylphenylamino)-1,9-dihydropurin-6-one (14 μmol/L; 28 μmol/L) were added. The samples were then incubated at 43° C. and the aggregation behaviour of the CS was […] in a spectrometer (PerkinElmer LS55, PerkinElmer Inc.) at a wavelength of 500 nm.
It can be seen from FIG. 1 that the protein citrate synthase (graph CS alone) is denatured by increasing the temperature to 43° C. and forms aggregates. The aggregation is measured in the spectrometer at 500 nm (light scattering by protein aggregates). The presence of HSP27 (HSP) counteracts the aggregation (cf. graph, CS+HSP). Since the addition of the test substances (BVDU and 2-(3-trichlorovinylphenylamino)-1,9-dihydropurin-6-one) inhibits the chaperone function of HSP27, the activity of the respective test substance can be determined by measuring the aggregation behaviour of the CS.

RPMI-8226 cells [4] = assay: Development of resistance to bortezomib in RPMI-8226 cells; format: cell-based; remark: listed apart in the source
HSP27 [5] = molecular target: T1, HSP27; assay: Bio-layer interferometry binding to HSP27; conditions: wet-chemical experiments
Text: Bio-layer interferometry is a technique for detecting biomolecular interactions. It is an analytical technique that measures the optical interference of white light which is reflected by two surfaces: in each case, one surface consists of a layer of the immobilized target protein on the tip of the biosensor and one is an internal reference surface. The binding of ligands to the target protein alters the interference pattern and can be measured in real time.
For the measurements, an instrument of the ForteBio Octet Red 384 brand was used. The target protein HSP27 was biotinylated and bound to the appropriate sensors (SSA). […]
For measurements by bio-layer interferometry, biotinylated HSP27 protein was first bound to Super-Streptavidin sensors (SSA, Fortebio). […] In the case of a specific binding to HSP27 of the analyte to be measured, the loaded HSP27 sensor generates a stronger signal (response) than the concurrent reference sensor. After the “baseline” has been established by incubation with the reaction buffer (PBST 0.1% Tween 20 plus 3% DMSO), first the association and then the dissociation of the respective analyte is measured in real time. The analytes were measured in increasing concentrations in each case: 1.23-3.7-11.11-33.33-100-300 μM/l.

U937 cells = assay: Development of resistance to bortezomib in U937 cells; format: cell-based; conditions: bortezomib 0.1-0.5 ng/ml + 0.75 μmol/L test substance (FIG. 11a)
Experimental: For this purpose, U937 cells (histiocytic lymphoma) were cultured in DMEM culture medium (+10% FCS) at 37° C., 5% CO2 in an H2O-saturated atmosphere. 100,000 cells/ml were seeded and incubated with the cytostatic agent bortezomib (0.1 ng/ml) and the respective test substance (dosage in the current experiment: 1 μM/L acepromazine). The reference substance, BVDU, was employed at a concentration of 30 μM/L. The cells were in each case passaged before the cell count reached 1,000,000 cells/ml. At each passage, 100,000 cells/ml were again seeded and the dose of the cytostatic agent bortezomib was increased stepwise (0.1 ng/mL or 0.05 ng/mL). The concentration of the test substances remained constant. As a result of the stepwise increase in the dosage of the cytostatic agent, resistance developed in the U937 cells. The development of resistance is prevented or inhibited in the case of a positively tested HSP27 inhibitor. The experiments from Example 6 were repeated in the same way, wherein U937 cells (histiocytic lymphoma) are cultured in DMEM culture medium (+10% FCS) at 37° C., 5% CO2 in an H2O-saturated atmosphere. 100,000 cells/ml were seeded and incubated with an initial concentration of 0.2 ng/ml of the cytostatic agent bortezomib and both without an inhibitor and with acepromazine as an HSP27 inhibitor at a concentration of 1 μM/L. The reference substance, BVDU, was employed at a concentration of 30 μM/L. The cells were passaged in each case before the cell count reached 1,000,000 cells/ml. At each passage, 100,000 cells/ml were again seeded and the dose of the cytostatic agent bortezomib was increased stepwise by 0.1 ng/mL. The concentration of the test substance and the reference substance remained constant. As a result of the stepwise increase in the dosage of the cytostatic agent, resistance developed in the U937 cells. The development of resistance is prevented or inhibited in the case of a positively tested HSP27 inhibitor. The cell line U-937 is a histiocytic lymphoma (DSMZ ACC 5). This cell line also responds to treatment with bortezomib, expresses HSP27 and develops resistance to bortezomib. Bortezomib is not the standard therapy for this lymphoma, but is being discussed as a possible therapeutic agent. U-937 cells were seeded with a cell count of 100,000 cells/ml in each case and regularly passaged. […] At the end of the experiment, 70,000 living cells per ml medium could be detected. For the treatment with 30 μmol/L BVDU, a final cell count of 250,000 cells/ml was detected whereas the final cell count in the culture without the addition of an HSP27 inhibitor amounted to 450,000 cells/ml. As a control, U-937 cells were treated with the respective test substances alone, FIG. 10b.

[6] = 43° C. for 120 minutes (Table 1)
[7] = relative to 750 μmol/L BVDU = 1 (Table 1)
[8] = 43° C. for 120 minutes (Table 2)
[9] = relative to 750 μmol/L BVDU = 1 (Table 2)

T1 sequence (P04792 whole entry): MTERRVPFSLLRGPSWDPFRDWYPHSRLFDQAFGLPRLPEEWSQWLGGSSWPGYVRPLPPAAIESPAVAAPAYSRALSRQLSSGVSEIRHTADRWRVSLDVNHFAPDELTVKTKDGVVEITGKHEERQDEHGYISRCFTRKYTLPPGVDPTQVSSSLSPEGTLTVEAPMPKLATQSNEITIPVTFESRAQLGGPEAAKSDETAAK

Row | Structure (SMILES) | development of resistance to the cytostatic agent bortezomib (RPMI-8226 cells [1]; bortezomib 0.1-0.3 ng/ml + 1 μmol/L test substance (FIG. 7a)) | times higher activity than BVDU for the inhibition of the HSP27 protein (HSP27 [2]) | Efficacy compared with BVDU (HSP27 [2]; [6]) | Rel. quantity of protein prec. CS (HSP27 [2]; [7]) | BVDU equivalent dose (HSP27 [2]) | effect on chaperone function of HSP27 (CS aggregation) relative to 750 μmol/L BVDU (HSP27 [3]; 14 μmol/L) | effect on chaperone function of HSP27 (CS aggregation) relative to 750 μmol/L BVDU (HSP27 [3]; 28 μmol/L) | BVDU equivalent dose (HSP27 [3]; based on 100 mg BVDU) | living cells at the end of the experiment (RPMI-8226 cells [4]; bortezomib 0.1-0.3 ng/ml + 1 μmol/L test substance (FIG. 7a), without HSP27 inhibitor 950,000 cells/ml) | development of resistance to the cytostatic agent bortezomib (RPMI-8226 cells [1]; bortezomib 0.2-0.4 ng/ml + 0.5 μmol/L chlorpromazine (FIG. 5a)) | living cells at the end of the experiment (RPMI-8226 cells [1]; bortezomib 0.2-0.4 ng/ml + 0.5 μmol/L chlorpromazine (FIG. 5a), without HSP27 inhibitor 350,000 cells/ml) | Efficacy compared with BVDU (HSP27 [2]; [8]) | Rel. quantity of protein prec. CS (HSP27 [2]; [9]) | affinity for interaction with HSP27 (HSP27 [5]) | development of resistance to the cytostatic agent bortezomib (RPMI-8226 cells [1]; bortezomib 0.075-0.275 ng/ml + 1 μmol/L test substance (FIG. 8a)) | living cells at the end of the experiment (RPMI-8226 cells [4]; bortezomib 0.075-0.275 ng/ml + 1 μmol/L test substance (FIG. 8a), without HSP27 inhibitor 510,000 cells/ml) | development of resistance to the cytostatic agent bortezomib (U937 cells) | living cells at the end of the experiment (U937 cells; without HSP27 inhibitor 450,000 cells/ml) | development of resistance to the cytostatic agent bortezomib (RPMI-8226 cells [4]; bortezomib 0.1-0.3 ng/ml + 1 μM/L test substance (FIG. 6a)) | living cells at the end of the experiment (RPMI-8226 cells [4]; bortezomib 0.1-0.3 ng/ml + 1 μM/L test substance (FIG. 6a), without HSP27 inhibitor 950,000 cells/ml)
1 | O=c1[nH]c(Nc2cccc(C(Cl)=C(Cl)Cl)c2)nc2[nH]cnc12 [2-(3-trichlorovinylphenylamino)-1,9-dihydropurin-6-one] | significantly inhibited | 53 times | 53.25 x | 0.71 | less than 1.9 mg | comparable effect | significantly more pronounced effect | less than 1.9 mg | 270,000 living cells per ml medium | – | – | – | – | – | – | – | – | – | – | –
2 | CN(C)CCCN1c2ccccc2Sc2ccc(Cl)cc21 [Chlorpromazine, reference compound] | – | – | 79.5 x | 1.06 | – | – | – | – | – | significantly inhibited | 70,000 living cells per ml medium | 79.5 x | 1.06 | only a low affinity | – | – | – | – | – | –
3 | Cc1cn(CC=CCNC(=O)C2c3ccccc3Oc3ccccc32)c(=O)[nH]c1=O [9H-xanthene-9-carboxylic acid [4-(5-methyl-2,4-dioxo-3,4-dihydro-2H-pyrimidin-1-yl)-but-2-enyl]amide] | – | 49 times | – | – | less than 2 mg | – | – | – | – | – | – | 48.75 x | 0.65 | – | significantly inhibited | 290,000 living cells per ml medium | – | – | – | –
4 | CCCCc1ccc(Nc2nc3c(ncn3COCCO)c(=O)[nH]2)cc1 [2-(4-butylphenylamino)-9-(2-hydroxyethoxymethyl)-1,9-dihydropurin-6-one] | – | 69 times | 69.0 x | 0.92 | 1.4 mg | – | – | – | – | – | – | – | – | – | – | – | significantly inhibited | 30,000 living cells per ml medium | significantly inhibited | 240,000 living cells per ml medium
